Reference: ChEMBL document CHEMBL4808247 (Bioorg Med Chem, 2021)
Values after ≈ are worked out from the molar mass of the structure shown.

How the values were obtained:
Format in all cases: functional
[1] = Ratio of MIC for antibacterial activity against Escherichia coli BL21(DE3) transfected with pET9a vector harboring class B beta lactamase NDM-1 to MIC for antibacterial activity against Escherichia coli BL21(DE3)
[2] = system: Escherichia coli; assay: Antibacterial activity against Escherichia coli NIHJ JC-2 assessed as reduction in microbial growth incubated for 16 to 20 hrs by broth microdilution method; conditions: time 16-20 hrs
[3] = Ratio of MIC for antibacterial activity against Escherichia coli BL21(DE3) transfected with pET9a vector harboring class C beta lactamase AmpC to MIC for antibacterial activity against Escherichia coli BL21(DE3)
[4] = Ratio of MIC for antibacterial activity against Escherichia coli BL21(DE3) transfected with pET9a vector harboring class D beta lactamase, OXA-48 to MIC for antibacterial activity against Escherichia coli BL21(DE3)
[5] = system: Escherichia coli; assay: Antibacterial activity against Escherichia coli BL21(DE3) transfected with pET9a vector harboring class B beta lactamase, NDM-1 incubated for 16 to 20 hrs by broth microdilution method; conditions: time 16-20 hrs
[6] = system: Escherichia coli; assay: Antibacterial activity against Escherichia coli BL21(DE3) transfected with pET9a empty vector incubated for 16 to 20 hrs by broth microdilution method; conditions: time 16-20 hrs
[7] = system: Enterobacter cloacae; assay: Antibacterial activity against Enterobacter cloacae IR32 producing class B beta-lactamase, NDM1 assessed as reduction in microbial growth incubated for 16 to 20 hrs by broth microdilution method; conditions: time 16-20 hrs
[8] = system: Escherichia coli; assay: Antibacterial activity against Escherichia coli SR34100 producing class A beta-lactamase, CTX-M-15 assessed as reduction in microbial growth incubated for 16 to 20 hrs by broth microdilution method; conditions: time 16-20 hrs
[9] = Ratio of MIC for antibacterial activity against Escherichia coli BL21(DE3) transfected with pET9a vector harboring class A beta lactamase, CTX-M-15 to MIC for antibacterial activity against Escherichia coli BL21(DE3)
[10] = system: Klebsiella pneumoniae; assay: Antibacterial activity against Klebsiella pneumoniae JMI:211 producing class A beta-lactamase, KPC-2 assessed as reduction in microbial growth incubated for 16 to 20 hrs by broth microdilution method; conditions: time 16-20 hrs
[11] = system: Escherichia coli; assay: Antibacterial activity against Escherichia coli BL21(DE3) transfected with pET9a vector harboring class C beta lactamase, AmpC incubated for 16 to 20 hrs by broth microdilution method; conditions: time 16-20 hrs
[12] = system: Escherichia coli; assay: Antibacterial activity against Escherichia coli BL21(DE3) transfected with pET9a vector harboring class A beta lactamase, CTX-M-15 incubated for 16 to 20 hrs by broth microdilution method; conditions: time 16-20 hrs
[13] = system: Klebsiella pneumoniae; assay: Antibacterial activity against Klebsiella pneumoniae PLE producing class D beta-lactamase, OXA-48 assessed as reduction in microbial growth incubated for 16 to 20 hrs by broth microdilution method; conditions: time 16-20 hrs
[14] = system: Enterobacter cloacae; assay: Antibacterial activity against Enterobacter cloacae SR36276 producing class C beta-lactamase, AmpC assessed as reduction in microbial growth incubated for 16 to 20 hrs by broth microdilution method; conditions: time 16-20 hrs
[15] = system: Escherichia coli; assay: Antibacterial activity against Escherichia coli BL21(DE3) transfected with pET9a vector harboring class D beta lactamase, OXA-48 incubated for 16 to 20 hrs by broth microdilution method; conditions: time 16-20 hrs
[16] = system: Escherichia coli; assay: Antibacterial activity against Escherichia coli SR34100 producing class A beta lactamase, CTX-M-15 assessed as reduction in microbial growth incubated for 16 to 20 hrs in presence of vaborbactam by broth microdilution method; conditions: time 16-20 hrs
[17] = system: Klebsiella pneumoniae; assay: Antibacterial activity against Klebsiella pneumoniae PLE producing class D beta-lactamase, OXA-48 assessed as reduction in microbial growth incubated for 16 to 20 hrs in presence of vaborbactam by broth microdilution method; conditions: time 16-20 hrs
[18] = system: Klebsiella pneumoniae; assay: Antibacterial activity against Klebsiella pneumoniae JMI:211 producing class A beta-lactamase, KPC-2 assessed as reduction in microbial growth incubated for 16 to 20 hrs in presence of vaborbactam by broth microdilution method; conditions: time 16-20 hrs
[19] = system: Escherichia coli; assay: Antibacterial activity against Escherichia coli NIHJ JC-2 strain assessed as reduction in microbial growth incubated for 16 to 20 hrs in presence of vaborbactam by broth microdilution method; conditions: time 16-20 hrs
[20] = system: Enterobacter cloacae; assay: Antibacterial activity against Enterobacter cloacae IR32 producing class B beta-lactamase, NDM-1 assessed as reduction in microbial growth incubated for 16 to 20 hrs in presence of vaborbactam by broth microdilution method; conditions: time 16-20 hrs
[21] = system: Enterobacter cloacae; assay: Antibacterial activity against Enterobacter cloacae SR36276 producing class C beta-lactamase, AmpC assessed as reduction in microbial growth incubated for 16 to 20 hrs in presence of vaborbactam by broth microdilution method; conditions: time 16-20 hrs

Which Ratio [1] does the source give for `CC(C)(O/N=C(\C(=O)N[C@@H]1C(=O)N2[C@@H]1SC[C@@H]1CC(=O)O[C@@]12C(=O)O)c1csc(N)n1)C(=O)O` (stereo in doubt) here?
The Ratio was less than 2.

What about the MIC [2] of the same molecule?
The MIC was 0.5 µg/mL.

And the Ratio [3]?
The Ratio was less than 2.

And the Ratio [4]?
The Ratio was less than 2.

What about the MIC [5] of the same molecule?
Its MIC is 0.5 µg/mL (≈ 0.974 µM).

What about the MIC [6] of the same molecule?
The MIC was 0.5 µg/mL (≈ 0.974 µM).

What about the MIC [7] of the same molecule?
The MIC was 0.5 µg/mL.

And the MIC [8]?
Its MIC is 1 µg/mL.

What about the Ratio [9] of the same molecule?
The Ratio was less than 2.

What about the MIC [10] of the same molecule?
The MIC was 1 µg/mL.

And the MIC [11]?
The MIC was 1 µg/mL (≈ 1.95 µM).

And the MIC [12]?
Its MIC is 0.5 µg/mL (≈ 0.974 µM).

What about the MIC [13] of the same molecule?
The MIC was 2 µg/mL.

And the MIC [14]?
The MIC was 16 µg/mL.

What about the MIC [15] of the same molecule?
The MIC was 0.5 µg/mL (≈ 0.974 µM).

Which MIC [16] does the source give for `C[C@@H](O)[C@H]1C(=O)N2C(C(=O)O)=C(S[C@@H]3CN[C@H](C(=O)N(C)C)C3)[C@H](C)[C@H]12` [MEROPENEM] here?
The MIC was less than 0.031 µg/mL.

And the MIC [17]?
The MIC was 1 µg/mL.

What about the MIC [18] of the same molecule?
The MIC was less than 0.031 µg/mL.

And the MIC [19]?
Its MIC is less than 0.031 µg/mL.

What about the MIC [20] of the same molecule?
Its MIC is 16 µg/mL.

What about the MIC [21] of the same molecule?
The MIC was less than 0.031 µg/mL.
